Assay [1] concerns DBA/2 cardiac allografts in B6AF1 recipients. Kind of assay: Heterotopic cardiac allograft transplantation, graft survival. The format is in vivo, mice. Here is the method: Animals. Male DBA/2 (H-2^d), B6AF1 (H-2^k/d,b) and FVB (H-2^q) mice were purchased from Jackson Lab. Inc. (Bar Harbor, Me.). They were maintained in the institutional specific-pathogen free facility, which has an appropriate light cycle with free access to water and chow ad libitum, and used for experiments at age of 6-10 weeks.
Cardiac transplantation. DBA2/J and B6AF1 mice were used as donor and recipient, respectively. Heterotopic heart transplantation was carried out according to the procedure of Corry and Russell (Corry et al., Transplant Proc. 5(1):733-5, 1973). […] Secondary heart grafting into the neck was performed using a cuff technique as described previously (Matsuura et al., Transplantation 51(4):896-8, 1991). Briefly, the heart graft was harvested from either DBA2/J (donor strain) or FVB (third-party strain) mice. The right jugular vein and the right common carotid artery of recipient were dissected, and a cuff (polyethylene or polyimide) was connected to these vessels. The graft aorta and pulmonary artery were sleeved over the cuff on the recipient's common carotid artery and the jugular vein, respectively, and fixed with a ligature. After transplantation, beating of the graft was monitored by daily palpation, and scored +1 to +4 according to the strength of graft contractions. Graft rejection was defined as cessation of beating, and was confirmed by direct inspection followed by histological examination.
Donor and recipient mice were treated either with CoPPIX (5 mg/kg/day), ZnPPIX (5 mg/kg/day) or biliverdin (administered once, twice or three times per day at a dose of 50 μmol/kg/dose). All reagents were administered by intraperitoneal (i.p.) injection. Donor animals were treated for 2 days, starting from 2 days before graft harvest (day-2 and day-1). Treatment of recipient mice was initiated one day before transplantation, and continued until 13 days post-transplant (day-1 to day 13). For the experiments using donor splenocyte infusion (DSI) on day-7 (DSI (D-7)), treatments of recipient animals (either with CoPPIX or ZnPPIX) started from day-8 and were terminated on day 6. Recipients received no further treatment. Spleen cells (2×10^7) isolated from DBA/2J mice as described herein were used for DSI treatment. The cells were injected via the penile vein with 200 μl of 0.9% saline solution.
Statistics. Cardiac graft survival was plotted by the Kaplan-Meier method, and a log-rank test was applied to compare statistical significance. Expression levels of HO-1/α-actin protein are expressed as mean±standard deviation. Other data are expressed as mean±standard error of the mean (mean±SEM). Intergroup statistical analysis was performed by one-way ANOVA, and Fisher's PSLD was used for a post-hoc test. A comparison was considered statistically significant when the p-value was <0.05.

In assay [2] the test system is recipient splenocytes. As to the kind of experiment: Mixed lymphocyte culture with splenocytes of treated cardiac allograft recipients. The format is in vivo, mice. As for the experimental part: Mixed lymphocyte culture (MLC). Irradiated (25Gy, ^137Cs) DBA/2 splenocytes (5×10^5/well) were co-cultured with responders (5×10^5/well) in a 96 well round bottom plates for 3 days at 37° C., 95% air with 5% CO2. When using cells from cardiac recipients as responders, the co-culture period was 3 days without any further in vitro treatment. ^3H-thymidine (1 μCi/well) was added 16 hours before termination of cell culture, and ^3H-thymidine incorporation was measured.
Induction of HO-1 expression or biliverdin administration suppresses the T cell mediated alloimmune response in vivo. […] Recipient splenocytes harvested 5 days after cardiac transplantation were used as responder cells in an in vitro culture with DBA/2 splenocytes as feeder cells. Proliferation was measured at 72 hours (FIG. 9).

Assay [3] has as its system SITx recipients. Kind of assay: Animal survival after SITx with 6 hours cold preservation. The format is in vivo, LEW rats. As to conditions: 14 days follow-up; 8/8; saline control 57.1%. Here is the method: Small Intestinal Transplantation. Orthotopic small intestinal transplantation (SITx) was performed in syngeneic Lewis rats. SITx with caval drainage was performed using a previously described procedure (Murase et al., in Handbook of Animal Models in Transplantation Research, Cramer et al., Eds. CRC Press, Boca Raton, Fla., pp. 203-213 (1994)). […] The graft was perfused via the aortic segment with 5 ml chilled Ringer's lactate solution, and the intestinal lumen was irrigated with 20 ml of cold saline solution containing 0.5% neomycin-sulfate (Sigma, St. Louis, Mo.). End-to-side anastomoses between the graft aorta and the recipient infrarenal aorta, and between the graft portal vein and recipient vena cava, were performed with 10-0 Novafil™ suture. […] The entire recipient intestine was removed and the enteric continuity was restored by proximal and distal end-to-end intestinal anastomoses. Recipient animals were given 20 mg/day prophylactic cefamandole nafate for 3 postoperative days. Transplanted recipients were given water 3 hours after surgery, and were fed 24 hours after surgery.
Animal survival. Six hours of cold preservation in UW of the intestinal graft induced intestinal dysfunction in untreated recipients; 3 out of 14 control animals died within 24 hours and an additional 3 animals died 5 and 7 days after SITx due to bowel obstruction secondarily to intestinal I/R injury. […]

Setting [4] is: long-term acceptors after biliverdin, second set transplantation, n=3.

The structures appear in SMILES notation. Counter-ions that a name gives are not always drawn.

For `C=CC1=C(C)c2cc3[n-]c(cc4nc(cc5[n-]c(cc1n2)c(C)c5CCC(=O)[O-])C(CCC(=O)[O-])=C4C)c(C)c3C=C.[Co+2].[H+].[H+]` [CoPP, Cobalt protoporphyrin], in assay [1] (5 mg/kg/day i.p., donor from day-2, recipient day-1 to day 13, 2 of 6), the “grafts surviving long-term, >100 days” value is 33.3%. Besides, the “MST of the other 4 rejected grafts” value in assay [1] (CoPPIX 5 mg/kg/day i.p.) amounted to 18 days. In assay [1] (CoPPIX (donor 2 days, recipient day-8 to day 6) plus DSI (D-7), 7/7), the “allografts surviving over 100 days” value came out at 100%. Also, the “grafts surviving long-term for more than 100 days” value in assay [1] (CoPPIX together with DSI (D0), 7 of 8) was found to be 87.5%. In assay [2] (harvested 5 days after cardiac transplantation, 72 hours culture with DBA/2 splenocytes, compared to controls), the “proliferation of recipient splenocytes” value is listed as “inhibited splenocyte proliferation in a significant manner”.

`C=CC1=C(C)/C(=C/C2=NC(=C\c3[nH]c(/C=C4\NC(=O)C(C)=C4C=C)c(C)c3CCC(=O)O)/C(CCC(=O)O)=C2C)NC1=O` [biliverdin, biliverdin dihydrochloride]: the “grafts surviving for more than 100 days” value in assay [1] (biliverdin two (every 12 hours) or three (every 8 hours) times per day, 50 μmol/kg per dose, 4 of 6) is 66.7%. In assay [1] (setting [4]), the “acceptance of secondary heart graft from the donor strain” value is listed as “more than 60 days” and the “rejection of third party (FVB) graft” value was ≤ 11 days. In addition, in assay [1] (one dose per day i.p. (ZnPPIX 5 mg/kg; biliverdin 50 μmol/kg), untreated 11.5 days), the “graft median survival time (MST)” value was 20.5 days. In addition, in assay [2] (biliverdin 50 μmol/kg, one dose per day), the “proliferation of recipient splenocytes” value is listed as “significantly suppressed”. In assay [2] (biliverdin 50 μmol/kg, three doses per day), the “proliferation of recipient splenocytes” value is “significantly suppressed”. In assay [3], this molecule returned an overall animal survival of 100%.

These data come from US8097585B2, “Methods of treating inflammation by administration of heme oxygenase-1 and products of heme degradation” (priority 2002, dated 2012).
